Results as given in US20140256793A1, “MEDICAMENT FOR DISEASES ASSOCIATED WITH AMYLOID beta AND SCREENING THEREOF” (National University Corporation Hokkaido University, priority 2011, published 2014).

Tests used:
Aβ = experiment: Thioflavin T test of Aβ amyloid fibril formation with exosomes; format: biochemical, human; conditions: exosomes from inhibitor- or siRNA-treated cells mixed with 25 μM Aβ42, five hours at 37° C.
Protocol: A seed-free Aβ solution was prepared essentially according to the previous report (Naiki H et al., Methods Enzymol (1999) 309: 305-318). Briefly stated, synthetic Aβ40 and Aβ42 were dissolved in a 0.02% ammonium solution at 500 μM and 300 μM, respectively. In order to remove undissolved Aβ aggregates that can act as pre-existing seeds, the prepared solution was centrifuged at 540,000×g for three hours at 4° C. The obtained supernatant was collected and stored at −80° C. until use.
Seed free Aβ (25 μM) was incubated in 100 μl of TBS comprising 0 μl, 1 μl, or 10 μl of exosome solution at 37° C. 1 μl of exosome solution was collected from culture supernatants of 1×10^6 cells. As described in the prior art document (Naiki H et al., Methods Enzymol (1999)309:305-318), fluorescence intensity of ThT in the mixture was measured using an Appliskan spectrofluorophotometer (Thermo Fisher Scientific). The optimal fluorescence intensities of amyloid fibrils were measured at an excitation wavelength of 446 nm and fluorescent wavelength of 490 nm by using a reaction mixture comprising 5 μM ThT and 50 mM glycine/NaOH with pH of 8.5.

N2a cells = experiment: Measurement of exosome release from N2a cells after siRNA, C6-ceramide or bacterial SMase treatment (Western blot); format: cell-based, murine; conditions: for exosome release / secretion after siRNA knockdown: Stealth RNAi siRNA, Western blot of exosome markers; for ratio of amount of Alix compared with a control: siRNA knockdown, exosome fraction
Protocol: (§1) As previously described (Thery C et al., Curr Protoc Cell Biol Chapter: Unit 3.22 (2006)), exosomes were prepared from culture supernatants of N2a and murine primary cultured cortical nerve cells. The culture medium was replaced with a serum-free medium on the day before the preparation of exosomes. The cell culture supernatants were collected after 24 hours and sequentially centrifuged at 3,000×g for 10 minutes, at 4,000×g for 10 minutes, and at 10,000×g for 30 minutes to remove cells, dead cells, and cell fragments, and then spun down again at 100,000×g for one hour to obtain exosomes as pellets.
(§2) Treatment with imipramine (10 μM), GW4869 (10 μM), D609 (50 μM) C6-ceramide (50 μM) or bacterial SMase (100 μU/ml) was performed for 24 hours in a serum-free medium.
For RNA-mediated interference (RNAi) experiments, the inventors used Stealth RNAi™ siRNA (Invitrogen) with the following sequences:
Stealth™ Control RNA was obtained from Invitrogen SiRNA was delivered according to the manufacturer's protocol by using a Lipofectamine™ transfection reagent (Invitrogen).
(§3) Exosome pellets purified from cultures of 5×10^6 cells were solubilized with Laemmli buffer (Laemmli U K, Nature (1970) 227: 680-685) and subjected to SDS-PAGE and Western blotting. Blots were probed with a primary antibody and then probed with an HRP-conjugated secondary antibody. Bands were detected and analyzed using a combination of an ECL Plus kit (GE Healthcare) and an LAS4000 (Fujifilm Corporation).

N2a cells and BV-2 cells = experiment: Transwell experiment: N2a-APP cells with BV-2 cells, Aβ levels by ELISA; format: cell-based, murine; conditions: for extracellular Aβ levels: no BV-2 cells on the lower wells, N2a-APP cells treated with siRNA
Protocol: Aβ40 and Aβ42 levels were measured by using a sandwich enzyme-linked immunosorbent assay (ELISA) kit from Wako. Aggregated Aβs both in medium and cells were solubilized with 4 M guanidine-HCl buffer for 2 hours at room temperature and then were subjected to ELISA. All samples were measured in duplicates.
(§4) N2a cells were cultured on 24-well plate inserts (0.5 μm pore, Costar) at 5×10^5 cells/cm^2 and then transfected with the APP770 plasmid simultaneously with siRNA for nSMase2 or SMS2 by using a Lipofectamine-2000. After 24 hours from the transfection, inserts were placed onto wells containing BV-2 cells. After an additional 24 hours of incubation, Aβ levels in the medium were measured by ELISA. Intracellular Aβ levels in BV-2 cells were also measured using ELISA after solubilization in guanidine HCl buffer as described above.

N2a-APP cells = experiment: Western blot of 100,000×g pellets from media of N2a-APP cells transfected with siRNA; format: cell-based, murine; conditions: for levels of released exosomes, estimated by the amounts of Alix and Tsg101: siRNA knockdown
Protocol: as §3, §4

[1] = system: N2a cells and primary cultured nerve cells; experiment: Measurement of exosome release after drug treatment (Western blot of Alix, Tsg101, GM1 in 100,000×g pellets); format: cell-based, murine; conditions: 24 hours in serum-free medium; imipramine 10 μM, GW4869 10 μM, D609 50 μM
Protocol: as §1, §2, §3

[2] = system: BV-2 cells or primary cultured microglia; experiment: Fluorescence staining and internalization assay of PKH26-labeled exosomes; format: cell-based, murine
[3] = system: BV-2 cells or primary cultured microglia; experiment: Aβ42 uptake into microglia (ELISA); format: cell-based, murine
[4] = in the presence of BV-2 cells in the lower wells, 24 hours

nSMase2 siRNA: Stealth RNAi siRNA (Invitrogen) for nSMase2, sense 5′-AAUCGAUGUAGAUCUUGAUCUGAGG-3′ (antisense CCUCAGAUCAAGAUCUACAUCGAUU; commercial Stealth RNAi siRNA, chemistry not given here)
Aβ fibrillogenesis (ThT fluorescence) by exosomes purified from treated cultures, compared with controls (Aβ): significantly reduced
exosome release / secretion after siRNA knockdown (N2a cells): reduced
extracellular Aβ levels (N2a cells and BV-2 cells): unchanged
levels of released exosomes, estimated by the amounts of Alix and Tsg101 (N2a-APP cells): obviously modulated

SMS2 siRNA: Stealth RNAi siRNA (Invitrogen) for SMS2, sense 5′-AUACAUAGUUAUACAGCGAUACAGG-3′ (antisense CCUGUAUCGCUGUAUAACUAUGUAU; commercial Stealth RNAi siRNA, chemistry not given here)
Aβ fibrillogenesis (ThT fluorescence) by exosomes purified from treated cultures, compared with controls (Aβ): increased
exosome release / secretion after siRNA knockdown (N2a cells): significant increases
ratio of amount of Alix compared with a control (N2a cells): 424.75±45.96%
Aβ levels in the BV-2 cells (N2a cells and BV-2 cells; compared with treatment with control RNA): significantly increased
level of Aβ40 in the culture media (N2a cells and BV-2 cells; [4]): significantly decreased
level of Aβ42 in the culture media (N2a cells and BV-2 cells; [4]): significantly decreased
extracellular Aβ levels (N2a cells and BV-2 cells): unchanged
Aβ in 100,000×g pellets (N2a-APP cells; Western blotting): detected
levels of released exosomes, estimated by the amounts of Alix and Tsg101 (N2a-APP cells): obviously modulated

O=C(/C=C/c1ccc(/C=C/C(=O)Nc2ccc(C3=NCCN3)cc2)cc1)Nc1ccc(C2=NCCN2)cc1 [GW4869]
Aβ fibrillogenesis (ThT fluorescence) by exosomes purified from treated cultures, compared with controls (Aβ): significantly reduced
levels of released exosomes (exosomal markers Alix, Tsg101, GM1 in 100,000×g pellets) [1]: significantly decreased

SMS1 siRNA: Stealth RNAi siRNA (Invitrogen) for SMS1, sense 5′-AUACAUUGUAAUACACCGAUACAGG-3′ (antisense CCUGUAUCGGUGUAUUACAAUGUAU; Commercial Stealth RNAi siRNA, modifications not given here)
exosome release / secretion after siRNA knockdown (N2a cells): significant increases
ratio of amount of Alix compared with a control (N2a cells): 186.02±9.77%

aSMase siRNA: Stealth RNAi siRNA (Invitrogen) for aSMase, sense 5′-AUUGGUUUCCCUUUAUGAAGGGAGG-3′ (antisense CCUCCCUUCAUAAAGGGAAACCAAU; Commercial Stealth RNAi siRNA, modifications not given here)
exosome release / secretion after siRNA knockdown (N2a cells): did not change

CCCCCCCCCCCCC/C=C/[C@@H](O)[C@H](CO)NC(=O)CCCCC [C6-ceramide, N-hexanoyl-D-erythro-sphingosine]
release levels of exosomes (N2a cells; C6-ceramide 50 μM or bacterial SMase 100 μU/ml, 24 hours): significantly increased

CN(C)CCCN1c2ccccc2CCc2ccccc21 [imipramine]
levels of released exosomes (exosomal markers Alix, Tsg101, GM1 in 100,000×g pellets) [1]: did not change

nSMase1 siRNA: Stealth RNAi siRNA (Invitrogen) for nSMase1, sense 5′-AAUAGAACCACAUCUGCAUUCUUGG-3′ (antisense CCAAGAAUGCAGAUGUGGUUCUAUU; Commercial Stealth RNAi siRNA, modifications not given here)
exosome release / secretion after siRNA knockdown (N2a cells): did not change

S=C([S-])OC1CC2CC1C1CCCC21.[K+] (stereo not shown) [D609]
Aβ fibrillogenesis (ThT fluorescence) by exosomes purified from treated cultures, compared with controls (Aβ): increased
levels of released exosomes (exosomal markers Alix, Tsg101, GM1 in 100,000×g pellets) [1]: significant enhancement

AV: annexin V, specifically recognizes phosphatidylserine (PS)
uptake of exosomes into BV-2 cells or primary cultured microglia [2]: significantly suppressed
Aβ uptake into microglia [3]: significantly suppressed
